Test results reported in patent US20170121344A1 (Siga Technologies, Inc., priority 2009, published 2017).
Where two headings read alike, the source gives them in different places.

System: Dengue-2 (Strain New Guinea C)
Test: Viral yield assay against Dengue-2 in Vero cells
Assay type: cell-based, Dengue virus
Details: Dengue virus
Summary of the method: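 Vero cells were infected with dengue virus at an MOI of 0.1, treated with compound or DMSO vehicle, and kept at 37° C. Supernatant virus was harvested 48 hours post infection and titered on Vero cells, with EC50 derived from yield reduction.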

[1] = Vero, 48 h, read-out: Activity (EC50 class) against Dengue-2 Virus in Vero cells
[2] = Vero cells, MOI 0.1, harvested 48 hours post infection, read-out: Activity (EC50 class) against Dengue-2 Virus in Vero cells
[3] = DENV2, viral yield assay, Vero cells, MOI 0.1, 48 hours post infection, read-out: Activity (EC50 in μM) DENV-2
[4] = DENV2, Vero, 48 h, read-out: Activity (EC50 in μM) DENV-2

| SMILES | EC50 [2] [µM] | also measured |
| --- | --- | --- |
| CCCCOc1ccc(NC(=O)c2sc3nc(N)c(C#N)cc3c2N)cc1 [Compound 70, 3,6-Diamino-5-cyano-thieno[2,3-b]pyridine-2-carboxylic acid (4-butoxy-phenyl)-amide] |  | EC50 [1]: 5 to 25 µM |
| COc1ccc(CNC(=O)c2sc3nc4c(cc3c2N)CN(C)CC4)cc1 [Compound 266, 3-Amino-6-methyl-5,6,7,8-tetrahydro-thieno[2,3-b][1,6]naphthyridine-2-carboxylic acid 4-methoxy-benzylamide] | > 25 |  |
| CC(=O)c1ccc(NC(=O)c2sc3nc4c(cc3c2N)CN(C)CC4)cc1 [Compound 43, 3-Amino-6-methyl-5,6,7,8-tetrahydro-thieno[2,3-b][1,6]naphthyridine-2-carboxylic acid (4-acetyl-phenyl)-amide] | < 5 |  |
| CN1CCc2nc3sc(C(=O)Nc4nc5ccccc5s4)c(N)c3cc2C1 [Compound 62, 3-Amino-6-methyl-5,6,7,8-tetrahydro-thieno[2,3-b][1,6]naphthyridine-2-carboxylic acid benzothiazol-2-ylamide] | < 5 |  |
| Nc1c(C(=O)Nc2ccc3ccccc3c2)sc2nc3c(cc12)CCCC3 [Compound 87, 3-Amino-5,6,7,8-tetrahydro-thieno[2,3-b]quinoline-2-carboxylic acid naphthalen-2-ylamide] | 5 to 25 |  |
| CC1(C)Cc2nc3sc4c(=O)n(Cc5ccccc5)cnc4c3cc2CO1 [Compound 174, 2-Benzyl-8,8-dimethyl-8,9-dihydro-2H,6H-7-oxa-11-thia-2,4,10-triaza-benzo[b]fluoren-1-one] | > 25 |  |
| CCNC(=O)c1cccc(NC(=O)c2sc3nc(C)cc(C)c3c2C)c1 [Compound 402, N-[3-(ethylcarbamoyl)phenyl]-3,4,6-trimethyl-thieno[2,3-b]pyridine-2-carboxamide] |  | EC50 [3]: > 25 µM |
| C=C(C)Cn1cnc2c(sc3nc4c(cc32)COC(C)(C)C4)c1=O [Compound 203, 8,8-Dimethyl-2-(2-methyl-allyl)-8,9-dihydro-2H,6H-7-oxa-11-thia-2,4,10-triaza-benzo[b]fluoren-1-one] | > 25 |  |
| C=CCc1c(C)nc2sc(C(=O)Nc3ccc(Br)cc3)c(N)c2c1C [Compound 216, 5-Allyl-3-amino-4,6-dimethyl-thieno[2,3-b]pyridine-2-carboxylic acid (4-bromo-phenyl)-amide] | > 25 |  |
| COc1cccc(-c2ccc3c(N)c(C(=O)Nc4cccc(SC)c4)sc3n2)c1 [Compound 505, 3-amino-6-(3-methoxyphenyl)-N-(3-methylsulfanylphenyl)thieno[2,3-b] pyridine-2-carboxamide] |  | EC50 [3]: < 5 µM |
| CN(C)c1ccnc2sc3c(=O)n(-c4ccccc4)cnc3c12 [Compound 159, 9-Dimethylamino-3-phenyl-3H-pyrido[3′,2′:4,5]thieno[3,2-d]pyrimidin-4-one] |  | EC50 [1]: > 25 µM |
| Cc1ccccc1NC(=O)c1sc2nc(-c3cccs3)ccc2c1N [Compound 477, 3-amino-N-(o-tolyl)-6-(2-thienyl)thieno [2,3-b]pyridine-2-carboxamide] |  | EC50 [4]: < 5 µM |
| CCc1nnc(NC(=O)c2sc3nc(C)cc(COC)c3c2N)s1 [Compound 137, 3-Amino-4-methoxymethyl-6-methyl-thieno[2,3-b]pyridine-2-carboxylic acid (5-ethyl-[1,3,4]thiadiazol-2-yl)-amide] | > 25 |  |
| Cc1cnc2sc(C(=O)Nc3nnc(-c4ccccc4)s3)c(N)c2c1 [Compound 286, 3-amino-5-methyl-N-(5-phenyl-1,3,4-thiadiazol-2-yl)thieno[2,3-b]pyridine-2-carboxamide] |  | EC50 [3]: < 5 µM |
| COc1cccc(-c2ccc3c(N)c(C(=O)Nc4cc(F)ccc4C)sc3n2)c1 [Compound 565, 3-amino-N-(5-fluoro-2-methyl-phenyl)-6-(3-methoxyphenyl)thieno[2,3-b] pyridine-2-carboxamide] |  | EC50 [3]: < 5 µM |
| COc1ccc(Cl)cc1NC(=O)c1sc2nc3c(cc2c1N)CN(Cc1ccccc1)CC3 [Compound 31, 3-Amino-6-benzyl-5,6,7,8-tetrahydro-thieno[2,3-b][1,6]naphthyridine-2-carboxylic acid (5-chloro-2-methoxy-phenyl)-amide] | < 5 |  |
| CCCc1ccc2c(N)c(C(N)=O)sc2n1 [Compound 71, 3-Amino-6-propyl-thieno[2,3-b]pyridine-2-carboxylic acid amide] | 5 to 25 |  |
| O=c1[nH]c2c(sc3nc(-c4cccs4)ccc32)c(=O)n1-c1cccc(C(F)(F)F)c1 [Compound 316, 7-(thiophen-2-yl)-3-(3-(trifluoromethyl)phenyl)pyrido[3′,2′:4,5]thieno[3,2-d]pyrimidine-2,4(1H,3H)-dione] |  | EC50 [3]: < 5 µM |
| N=C(Nc1cccc(C(F)(F)F)c1)c1sc2nc(-c3cccs3)ccc2c1N [Compound 319, 3-amino-6-(2-thienyl)-N-[3-(trifluoromethyl)phenyl]thieno[2,3-b]pyridine-2-carboxamidine] |  | EC50 [3]: < 5 µM |

| SMILES | EC50 [2] [µM] | also measured |
| --- | --- | --- |
| Nc1c(C(=O)Nc2nccs2)sc2nc3c(c(-c4ccccc4Cl)c12)CCCC3 [Compound 10, 3-Amino-4-(2-chloro-phenyl)-5,6,7,8-tetrahydro-thieno[2,3-b]quinoline-2-carboxylic acid thiazol-2-ylamide] |  | EC50 [1]: < 5 µM |
| COc1cccc(-c2ccc3c(N)c(C(=O)Nc4cccc(C)c4C)sc3n2)c1 [Compound 562, 3-amino-N-(2,3-dimethylphenyl)-6-(3-methoxyphenyl)thieno[2,3-b]pyridine-2-carboxamide] |  | EC50 [3]: < 5 µM |
| COc1ccc(-c2ccc3c(N)c(C(=O)Nc4cccc(C)c4)sc3n2)cc1OC [Compound 633, 3-amino-6-(3,4-dimethoxyphenyl)-N-(m-tolyl)thieno[2,3-b]pyridine-2-carboxamide] |  | EC50 [3]: < 5 µM |
| Cc1cc(C)c2c(n1)sc1c(=O)n(-c3cccc(C(F)(F)F)c3)cnc12 [Compound 198, 7,9-Dimethyl-3-(3-trifluoromethyl-phenyl)-3H-pyrido[3′,2′:4,5]thieno[3,2-d]pyrimidin-4-one] | > 25 |  |
| COc1ccc(-c2cc(-c3ccccc3)nc3sc(C(=O)Nc4ccccc4)c(N)c23)cc1 [Compound 126, 3-Amino-4-(4-methoxy-phenyl)-6-phenyl-thieno[2,3-b]pyridine-2-carboxylic acid phenylamide] | > 25 |  |
| Nc1c(C(=O)N(c2ccccc2)c2ccccc2)sc2nc3c(cc12)CCC3 [Compound 207, 3-Amino-6,7-dihydro-5H-cyclopenta[b]thieno[3,2-e]pyridine-2-carboxylic acid diphenylamide] | > 25 |  |
| Cc1cc(C)c2c(C)c(C(=O)Nc3ccc(NC(=O)C4CC4)cc3)sc2n1 [Compound 393, N-[4-(cyclopropanecarbonylamino)phenyl]-3,4,6-trimethyl-thieno[2,3-b]pyridine-2-carboxamide] |  | EC50 [3]: 5 to 25 µM |
| COc1ccc(-c2ccc3c(N)c(C(=O)Nc4ccc5c(c4)OCO5)sc3n2)cc1OC [Compound 580, 3-amino-N-(1,3-benzodioxol-5-yl)-6-(3,4-dimethoxyphenyl)thieno[2,3-b] pyridine-2-carboxamide] |  | EC50 [4]: < 5 µM |
| COCc1cc(C)c2c(N)c(C(N)=O)sc2n1 [Compound 68, 3-Amino-6-methoxymethyl-4-methyl-thieno[2,3-b]pyridine-2-carboxylic acid amide] | 5 to 25 |  |
| COc1ccc(-c2ccc3c(N)c(C(=O)Nc4ccc(F)cc4)sc3n2)cc1OC [Compound 541, 3-amino-6-(3,4-dimethoxyphenyl)-N-(4-fluorophenyl)thieno[2,3-b]pyridine-2-carboxamide] |  | EC50 [4]: < 5 µM |
| CC1(C)Cc2nc3sc4c(=O)n(Cc5ccc(Cl)cc5Cl)cnc4c3cc2CO1 [Compound 252, 2-(2,4-Dichloro-benzyl)-8,8-dimethyl-8,9-dihydro-2H,6H-7-oxa-11-thia-2,4,10-triaza-benzo[b]fluoren-1-one] | > 25 |  |
| Cc1ccc(NC(=O)c2sc3nc(C)cc(C(F)(F)F)c3c2N)nc1 [Compound 132, 3-Amino-6-methyl-4-trifluoromethyl-thieno[2,3-b]pyridine-2-carboxylic acid (5-methyl-pyridin-2-yl)-amide] | > 25 |  |
| Nc1cnc2sc(C(=O)Nc3nnc(-c4ccccc4)s3)c(N)c2c1 [Compound 290, 3,5-diamino-N-(5-phenyl-1,3,4-thiadiazol-2-yl)thieno[2,3-b]pyridine-2-carboxamide] |  | EC50 [3]: < 5 µM |
| Nc1c(C(=O)NCCc2ccccc2)sc2nc3c(cc12)CCCCC3 [Compound 205, 3-Amino-6,7,8,9-tetrahydro-5H-1-thia-10-aza-cyclohepta[f]indene-2-carboxylic acid phenethyl-amide] | > 25 |  |
| COCc1cc(C)nc2sc(C(=O)Nc3ccccc3Cl)c(N)c12 [Compound 185, 3-Amino-4-methoxymethyl-6-methyl-thieno[2,3-b]pyridine-2-carboxylic acid (2-chloro-phenyl)-amide] | > 25 |  |
| CN1CCc2nc3sc(C(=O)Nc4ccc(N(C)C)cc4)c(N)c3cc2C1 [Compound 20, 3-Amino-6-methyl-5,6,7,8-tetrahydro-thieno[2,3-b][1,6]naphthyridine-2-carboxylic acid (4-dimethylamino-phenyl)-amide] | < 5 |  |
| CN1CCc2nc3sc(C(=O)Nc4ccc(Cl)cc4)c(N)c3c(-c3cccs3)c2C1 [Compound 36, 3-Amino-6-methyl-4-thiophen-2-yl-5,6,7,8-tetrahydro-thieno[2,3-b][1,6]naphthyridine-2-carboxylic acid (4-chloro-phenyl)-amide] | < 5 |  |
| Cc1nc2sc(C(=O)Nc3ccc(Br)cc3)c(N)c2c(C)c1C [Compound 157, 3-Amino-4,5,6-trimethyl-thieno[2,3-b]pyridine-2-carboxylic acid (4-bromo-phenyl)-amide] |  | EC50 [1]: > 25 µM |
| CCOc1cccc(NC(=O)c2sc3nc(-c4ccc(OC)c(OC)c4)ccc3c2N)c1 [Compound 582, 3-amino-6-(3,4-dimethoxyphenyl)-N-(3-ethoxyphenyl)thieno[2,3-b]pyridine-2-carboxamide] |  | EC50 [4]: < 5 µM |
